Source: ChEMBL document CHEMBL1201862, “PubChem BioAssay data set” (2004)
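Step 1: Grow cells in 96-well plates. Step 2: Expose to compound for 48 hours at 5 concentrations. Step 3: Interpolate endpoints linearly; if unreached, use highest concentration. GI50 marks 50% less growth.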 Calls of active or inactive are those of the source. Rule as the data show it: active = GI50 up to about 1.1 µM and inactive = higher.

What was measured:
Assay in all cases: growth of human tumour cells (NCI), 48 h
786-0 = tested on: 786-0
A549 = tested on: A549
ACHN = tested on: ACHN
CAKI-1 = tested on: CAKI-1
CCRF-CEM = tested on: CCRF-CEM
COLO 205 = tested on: COLO 205
DLD-1 = tested on: DLD-1
DMS-114 = tested on: DMS-114
DMS-273 = tested on: DMS-273
EKVX = tested on: EKVX
HCC 2998 = tested on: HCC 2998
HCT-116 = tested on: HCT-116
HCT-15 = tested on: HCT-15
HL-60 = tested on: HL-60
HOP-18 = tested on: HOP-18
HOP-62 = tested on: HOP-62
HT-29 = tested on: HT-29
K562 = tested on: K562
KM12 = tested on: KM12
LOX IMVI = tested on: LOX IMVI
M14 = tested on: M14
M19-MEL = tested on: M19-MEL
MOLT-4 = tested on: MOLT-4
Malme-3M = tested on: Malme-3M
NCI-H226 = tested on: NCI-H226
NCI-H23 = tested on: NCI-H23
NCI-H460 = tested on: NCI-H460
NCI-H522 = tested on: NCI-H522
OVCAR-3 = tested on: OVCAR-3
OVCAR-4 = tested on: OVCAR-4
OVCAR-5 = tested on: OVCAR-5
OVCAR-8 = tested on: OVCAR-8
RPMI-8226 = tested on: RPMI-8226
SF-268 = tested on: SF-268
SF-295 = tested on: SF-295
SF-539 = tested on: SF-539
SK-MEL-28 = tested on: SK-MEL-28
SK-MEL-2 = tested on: SK-MEL-2
SK-MEL-5 = tested on: SK-MEL-5
SN12C = tested on: SN12C
SNB-19 = tested on: SNB-19
SNB-75 = tested on: SNB-75
SNB-78 = tested on: SNB-78
SR = tested on: SR
SW-620 = tested on: SW-620
TK-10 = tested on: TK-10
UACC-257 = tested on: UACC-257
UO-31 = tested on: UO-31
XF498 = tested on: XF498
A498 = tested on: A498
HOP-92 = tested on: HOP-92
IGROV-1 = tested on: IGROV-1
KM-20L2 = tested on: KM-20L2
LXFL 529 = tested on: LXFL 529
RXF 393 = tested on: RXF 393
SK-OV-3 = tested on: SK-OV-3
U-251 = tested on: U-251

Q: Which results are given for Cc1c2[nH]c3ccc(Br)cc3c2c(C)c2nccc(O)c12?
A: GI50 (786-0): 11.1 µM (inactive); GI50 (A549): 10.2 µM (inactive); GI50 (ACHN): 10.1 µM (inactive); GI50 (CAKI-1): 13.8 µM (inactive); GI50 (CCRF-CEM): 7.35 µM (inactive); GI50 (COLO 205): 12.5 µM (inactive); GI50 (DLD-1): 27.9 µM (inactive); GI50 (DMS-114): 17.7 µM (inactive); GI50 (DMS-273): 12.2 µM (inactive); GI50 (EKVX): 16.4 µM (inactive); GI50 (HCC 2998): 16.2 µM (inactive); GI50 (HCT-116): 13.8 µM (inactive); GI50 (HCT-15): 15.1 µM; GI50 (HL-60): 12.1 µM (inactive); GI50 (HOP-18): 10.8 µM (inactive); GI50 (HOP-62): 13.1 µM (inactive); GI50 (HT-29): 14.4 µM (inactive); GI50 (K562): 17 µM (inactive); GI50 (KM12): 12.4 µM (inactive); GI50 (LOX IMVI): 15.5 µM (inactive); GI50 (M14): 12.8 µM (inactive); GI50 (M19-MEL): 14.6 µM (inactive); GI50 (MOLT-4): 5.57 µM (inactive); GI50 (Malme-3M): 13 µM (inactive); GI50 (NCI-H226): 16.6 µM (inactive); GI50 (NCI-H23): 16 µM (inactive); GI50 (NCI-H460): 6.9 µM (inactive); GI50 (NCI-H522): 12 µM (inactive); GI50 (OVCAR-3): 14.6 µM (inactive); GI50 (OVCAR-4): 16.3 µM (inactive); GI50 (OVCAR-5): 14.5 µM (inactive); GI50 (OVCAR-8): 20.7 µM (inactive); GI50 (RPMI-8226): 14.3 µM (inactive); GI50 (SF-268): 14.8 µM (inactive); GI50 (SF-295): 14.5 µM (inactive); GI50 (SF-539): 15.6 µM (inactive); GI50 (SK-MEL-28): 16.9 µM (inactive); GI50 (SK-MEL-2): 17.5 µM (inactive); GI50 (SK-MEL-5): 22.3 µM (inactive); GI50 (SN12C): 13.2 µM (inactive); GI50 (SNB-19): 14.5 µM (inactive); GI50 (SNB-75): 25.8 µM (inactive); GI50 (SNB-78): 16.2 µM (inactive); GI50 (SR): 12.1 µM (inactive); GI50 (SW-620): 11.7 µM (inactive); GI50 (TK-10): 12.8 µM (inactive); GI50 (UACC-257): 16.4 µM (inactive); GI50 (UO-31): 11.1 µM (inactive); GI50 (XF498): 16.1 µM (inactive)

Q: What does the source list for C/C(=C\CC/C=C(\C)CC/C=C(\C)CCC1SC1(C)C)CC/C=C(\C)CCC1OC1(C)C (stereo unspecified)?
A: GI50 (786-0): > 100 µM (inactive); GI50 (A498): > 100 µM (inactive); GI50 (A549): > 100 µM (inactive); GI50 (ACHN): > 100 µM (inactive); GI50 (CAKI-1): > 100 µM (inactive); GI50 (CCRF-CEM): > 100 µM (inactive); GI50 (COLO 205): > 100 µM (inactive); GI50 (DLD-1): > 100 µM (inactive); GI50 (DMS-114): 65.6 µM (inactive); GI50 (DMS-273): > 100 µM (inactive); GI50 (EKVX): > 100 µM (inactive); GI50 (HCC 2998): > 100 µM (inactive); GI50 (HCT-116): 78 µM (inactive); GI50 (HCT-15): > 100 µM; GI50 (HL-60): > 100 µM (inactive); GI50 (HOP-18): > 100 µM (inactive); GI50 (HOP-92): > 100 µM (inactive); GI50 (HT-29): > 100 µM (inactive); GI50 (IGROV-1): > 100 µM (inactive); GI50 (K562): > 100 µM (inactive); GI50 (KM-20L2): > 100 µM (inactive); GI50 (KM12): > 100 µM (inactive); GI50 (LXFL 529): > 100 µM (inactive); GI50 (M14): > 100 µM (inactive); GI50 (M19-MEL): 71.4 µM (inactive); GI50 (MOLT-4): > 100 µM (inactive); GI50 (Malme-3M): > 100 µM (inactive); GI50 (NCI-H226): > 100 µM (inactive); GI50 (NCI-H23): > 100 µM (inactive); GI50 (NCI-H460): > 100 µM (inactive); GI50 (NCI-H522): 47.3 µM (inactive); GI50 (OVCAR-3): > 100 µM (inactive); GI50 (OVCAR-4): > 100 µM (inactive); GI50 (OVCAR-8): > 100 µM (inactive); GI50 (RPMI-8226): > 100 µM (inactive); GI50 (RXF 393): 89.7 µM (inactive); GI50 (SF-268): > 100 µM (inactive); GI50 (SF-295): > 100 µM (inactive); GI50 (SF-539): > 100 µM (inactive); GI50 (SK-MEL-28): > 100 µM (inactive); GI50 (SK-MEL-2): > 100 µM (inactive); GI50 (SK-MEL-5): > 100 µM (inactive); GI50 (SK-OV-3): > 100 µM (inactive); GI50 (SN12C): > 100 µM (inactive); GI50 (SNB-19): > 100 µM (inactive); GI50 (SNB-75): > 100 µM (inactive); GI50 (SR): > 100 µM (inactive); GI50 (SW-620): > 100 µM (inactive); GI50 (TK-10): > 100 µM (inactive); GI50 (U-251): > 100 µM (inactive); GI50 (UO-31): > 100 µM (inactive); GI50 (XF498): > 100 µM (inactive)
